Consider one compound from patent US7541336B2 (priority 2002, dated 2009).

A short description of data set [1]: Solubility in solvent. The data set is classed as physicochemical.
Data set [2] concerns Caenorhabditis elegans. Kind of data set: Anti-nematode activity, 96 well plate. The data set is classed as in vivo. The following applies: at 20 μg/ml, observed after 2 days under microscope. How it is done: (§1) Methanol solution of FKI-1033 substance was added into 96 well plate (Corning Inc., the U.S.), removed off methanol in vacuo, added 250 μl of test medium (lecithin 0.01%, sodium hydrogen carbonate 7.5 mM, potassium chloride 7.5 mM, calcium chloride dihydrate 7.5 mM and magnesium sulfate heptahydrate 7.5 mM) and shaken for 15 min. 50 μl of buffer containing several nauplii of Artemia salina, which were hatched off in the buffer, was added thereto, and about ten nematodes, Caenorhabditis elegans, which were bred on agar medium for growth of nematode, were added thereto.

The target of data set [3] is ryanodine receptor of mouse origin (Mus musculus, UniProt E9PZQ0). Briefly: Ryanodine binding inhibition, crude mammalian ryanodine receptor.
Description: (2) Preparation of Mammalian Crude Ryanodine Receptor Fraction was Performed as Follows.
Muscles of the hind legs of ICR mouse were finely cut, and 3.0 g thereof was homogenized at 0° C., 1,000 rpm for 3×30 sec using glass homogenizer in 15 ml of buffer B (20 mM Tris-HCl buffer (pH 8.0) containing 4 μg/ml aprotinin and 4 μg/ml leupeptin). The homogenate was transferred into the micro test tube, and the glass homogenizer was also washed with the 7.5 ml of buffer B, and the washed solution was also added to the micro test tube, which was stirred, then centrifuged by using ultracentrifuge cooled at 4° C., 25,000×g for 40 min. 2.4 ml of the buffer B was added to the obtained precipitate and suspended to obtain the crude ryanodine receptor fraction of mouse origin.
(4) Binding Activity of Crude Mammalian Ryanodine Receptor was Assayed aAs Follows.
70 μl of the buffer A, 10 μl of ethanol solution of 0.1 nM ryanodine and 10 μl of 20 nM [9,21-^3H] (N) ryanodine were added into the 96 well microplate (Corning Inc. the U.S.). 10 μl of crude ryanodine receptor fraction of mouse origin was added to initiate the reaction, and shaken at room temperature for 90 min. by using microplate mixer. […] Radioactivity was measured by measuring fluorescence intensity of the filter with using scintillation counter (Wallac Inc. the U.S., MicroBeta™ TriLux).
In data set [4] the target is T1, ryanodine receptor of Periplaneta americana origin (Periplaneta americana, UniProt A0ABQ8T696).
T1 sequence (A0ABQ8T696 1-1387): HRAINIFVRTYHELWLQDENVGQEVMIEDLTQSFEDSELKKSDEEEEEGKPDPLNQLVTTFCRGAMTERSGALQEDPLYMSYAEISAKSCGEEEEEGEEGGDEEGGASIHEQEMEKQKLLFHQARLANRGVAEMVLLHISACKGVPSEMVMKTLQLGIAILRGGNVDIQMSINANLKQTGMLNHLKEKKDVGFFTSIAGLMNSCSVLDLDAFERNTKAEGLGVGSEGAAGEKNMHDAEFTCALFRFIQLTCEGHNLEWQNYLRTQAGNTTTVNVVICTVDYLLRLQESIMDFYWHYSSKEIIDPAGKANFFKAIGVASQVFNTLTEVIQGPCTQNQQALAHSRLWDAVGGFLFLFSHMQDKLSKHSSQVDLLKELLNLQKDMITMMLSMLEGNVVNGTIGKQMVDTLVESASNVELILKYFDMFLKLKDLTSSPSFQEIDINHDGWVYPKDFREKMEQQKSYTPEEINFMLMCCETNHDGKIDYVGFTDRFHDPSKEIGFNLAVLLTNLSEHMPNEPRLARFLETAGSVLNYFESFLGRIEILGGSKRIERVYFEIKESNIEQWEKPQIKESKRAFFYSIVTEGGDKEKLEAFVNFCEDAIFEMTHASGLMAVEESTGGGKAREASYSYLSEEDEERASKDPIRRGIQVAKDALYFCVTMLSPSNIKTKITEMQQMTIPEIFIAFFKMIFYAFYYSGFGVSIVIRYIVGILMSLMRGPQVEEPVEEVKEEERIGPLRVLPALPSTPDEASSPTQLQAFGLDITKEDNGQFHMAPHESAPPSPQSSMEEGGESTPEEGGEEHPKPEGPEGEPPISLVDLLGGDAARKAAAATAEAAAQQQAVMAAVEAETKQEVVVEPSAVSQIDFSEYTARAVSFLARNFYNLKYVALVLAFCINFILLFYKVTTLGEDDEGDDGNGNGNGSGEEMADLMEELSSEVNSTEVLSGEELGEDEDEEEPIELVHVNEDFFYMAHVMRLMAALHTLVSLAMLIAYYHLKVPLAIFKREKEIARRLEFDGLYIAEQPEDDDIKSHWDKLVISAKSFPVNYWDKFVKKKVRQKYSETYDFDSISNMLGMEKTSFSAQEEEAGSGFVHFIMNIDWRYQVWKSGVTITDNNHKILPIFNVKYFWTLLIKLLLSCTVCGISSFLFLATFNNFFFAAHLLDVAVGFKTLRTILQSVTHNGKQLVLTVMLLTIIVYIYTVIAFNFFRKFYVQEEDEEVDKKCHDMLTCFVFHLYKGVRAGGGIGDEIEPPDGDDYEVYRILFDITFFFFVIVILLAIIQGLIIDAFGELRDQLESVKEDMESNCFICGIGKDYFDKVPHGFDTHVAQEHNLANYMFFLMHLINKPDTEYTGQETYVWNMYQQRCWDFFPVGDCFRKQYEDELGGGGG
Kind of data set: Ryanodine binding inhibition, crude ryanodine receptor of Periplaneta americana.
Description: (1) Preparation of the Crude Ryanodine Receptor Fraction of the Insect was Performed as Follows.
The thorax and legs of ten adult insects of Periplaneta americana were frozen with liquid nitrogen and finely cut, and homogenized three times in 15 ml of 50 mM Tris HCl buffer (pH 7.4) containing 4 μg/ml leupeptin and 3 μg/ml pepstatin by using a knife homogenizer at 0° C., 24,000 rpm for 30 sec. The homogenate was filtered using double layered cotton cloth and the filtrate was centrifuged at 4° C., 3,000 rpm for 20 minutes. The obtained supernatant was centrifuged at 4° C., 30,000 rpm for 30 minutes and the precipitate suspended in 1 ml of 20 mM Tris HCl buffer (pH 8.0) containing 0.3 M sucrose, 500 μM calcium chloride and 1.5 M potassium chloride and homogenized with glass potter to obtain crude ryanodine receptor fraction. The crude ryanodine receptor fraction was used by diluting about 7 times with the buffer A (20 mM Tris-HCl buffer (pH 8.0) containing 4 μg/ml aprotinin, 4 μgμml leupeptin, 0.3 M sucrose and 500 μM calcium chloride) immediately before use. […]
70 μl of the buffer A, 10 μl of ethanol solution of 0.1 nM ryanodine and 10 μl of 20 nM [9,21-^3H] […] Radioactivity was measured by measuring fluorescence intensity of the filter with using scintillation counter (Wallac Inc. the U.S., MicroBeta™ TriLux)

In data set [5] the test system is nauplii of Artemia salina. Kind of data set: Anti-arthropod activity, 96 well plate. The data set is classed as in vivo. The following applies: at 20 μg/ml, observed after 2 days under microscope. On the procedure: as §1

ryanodine receptor of mouse origin, sequence (E9PZQ0 whole entry): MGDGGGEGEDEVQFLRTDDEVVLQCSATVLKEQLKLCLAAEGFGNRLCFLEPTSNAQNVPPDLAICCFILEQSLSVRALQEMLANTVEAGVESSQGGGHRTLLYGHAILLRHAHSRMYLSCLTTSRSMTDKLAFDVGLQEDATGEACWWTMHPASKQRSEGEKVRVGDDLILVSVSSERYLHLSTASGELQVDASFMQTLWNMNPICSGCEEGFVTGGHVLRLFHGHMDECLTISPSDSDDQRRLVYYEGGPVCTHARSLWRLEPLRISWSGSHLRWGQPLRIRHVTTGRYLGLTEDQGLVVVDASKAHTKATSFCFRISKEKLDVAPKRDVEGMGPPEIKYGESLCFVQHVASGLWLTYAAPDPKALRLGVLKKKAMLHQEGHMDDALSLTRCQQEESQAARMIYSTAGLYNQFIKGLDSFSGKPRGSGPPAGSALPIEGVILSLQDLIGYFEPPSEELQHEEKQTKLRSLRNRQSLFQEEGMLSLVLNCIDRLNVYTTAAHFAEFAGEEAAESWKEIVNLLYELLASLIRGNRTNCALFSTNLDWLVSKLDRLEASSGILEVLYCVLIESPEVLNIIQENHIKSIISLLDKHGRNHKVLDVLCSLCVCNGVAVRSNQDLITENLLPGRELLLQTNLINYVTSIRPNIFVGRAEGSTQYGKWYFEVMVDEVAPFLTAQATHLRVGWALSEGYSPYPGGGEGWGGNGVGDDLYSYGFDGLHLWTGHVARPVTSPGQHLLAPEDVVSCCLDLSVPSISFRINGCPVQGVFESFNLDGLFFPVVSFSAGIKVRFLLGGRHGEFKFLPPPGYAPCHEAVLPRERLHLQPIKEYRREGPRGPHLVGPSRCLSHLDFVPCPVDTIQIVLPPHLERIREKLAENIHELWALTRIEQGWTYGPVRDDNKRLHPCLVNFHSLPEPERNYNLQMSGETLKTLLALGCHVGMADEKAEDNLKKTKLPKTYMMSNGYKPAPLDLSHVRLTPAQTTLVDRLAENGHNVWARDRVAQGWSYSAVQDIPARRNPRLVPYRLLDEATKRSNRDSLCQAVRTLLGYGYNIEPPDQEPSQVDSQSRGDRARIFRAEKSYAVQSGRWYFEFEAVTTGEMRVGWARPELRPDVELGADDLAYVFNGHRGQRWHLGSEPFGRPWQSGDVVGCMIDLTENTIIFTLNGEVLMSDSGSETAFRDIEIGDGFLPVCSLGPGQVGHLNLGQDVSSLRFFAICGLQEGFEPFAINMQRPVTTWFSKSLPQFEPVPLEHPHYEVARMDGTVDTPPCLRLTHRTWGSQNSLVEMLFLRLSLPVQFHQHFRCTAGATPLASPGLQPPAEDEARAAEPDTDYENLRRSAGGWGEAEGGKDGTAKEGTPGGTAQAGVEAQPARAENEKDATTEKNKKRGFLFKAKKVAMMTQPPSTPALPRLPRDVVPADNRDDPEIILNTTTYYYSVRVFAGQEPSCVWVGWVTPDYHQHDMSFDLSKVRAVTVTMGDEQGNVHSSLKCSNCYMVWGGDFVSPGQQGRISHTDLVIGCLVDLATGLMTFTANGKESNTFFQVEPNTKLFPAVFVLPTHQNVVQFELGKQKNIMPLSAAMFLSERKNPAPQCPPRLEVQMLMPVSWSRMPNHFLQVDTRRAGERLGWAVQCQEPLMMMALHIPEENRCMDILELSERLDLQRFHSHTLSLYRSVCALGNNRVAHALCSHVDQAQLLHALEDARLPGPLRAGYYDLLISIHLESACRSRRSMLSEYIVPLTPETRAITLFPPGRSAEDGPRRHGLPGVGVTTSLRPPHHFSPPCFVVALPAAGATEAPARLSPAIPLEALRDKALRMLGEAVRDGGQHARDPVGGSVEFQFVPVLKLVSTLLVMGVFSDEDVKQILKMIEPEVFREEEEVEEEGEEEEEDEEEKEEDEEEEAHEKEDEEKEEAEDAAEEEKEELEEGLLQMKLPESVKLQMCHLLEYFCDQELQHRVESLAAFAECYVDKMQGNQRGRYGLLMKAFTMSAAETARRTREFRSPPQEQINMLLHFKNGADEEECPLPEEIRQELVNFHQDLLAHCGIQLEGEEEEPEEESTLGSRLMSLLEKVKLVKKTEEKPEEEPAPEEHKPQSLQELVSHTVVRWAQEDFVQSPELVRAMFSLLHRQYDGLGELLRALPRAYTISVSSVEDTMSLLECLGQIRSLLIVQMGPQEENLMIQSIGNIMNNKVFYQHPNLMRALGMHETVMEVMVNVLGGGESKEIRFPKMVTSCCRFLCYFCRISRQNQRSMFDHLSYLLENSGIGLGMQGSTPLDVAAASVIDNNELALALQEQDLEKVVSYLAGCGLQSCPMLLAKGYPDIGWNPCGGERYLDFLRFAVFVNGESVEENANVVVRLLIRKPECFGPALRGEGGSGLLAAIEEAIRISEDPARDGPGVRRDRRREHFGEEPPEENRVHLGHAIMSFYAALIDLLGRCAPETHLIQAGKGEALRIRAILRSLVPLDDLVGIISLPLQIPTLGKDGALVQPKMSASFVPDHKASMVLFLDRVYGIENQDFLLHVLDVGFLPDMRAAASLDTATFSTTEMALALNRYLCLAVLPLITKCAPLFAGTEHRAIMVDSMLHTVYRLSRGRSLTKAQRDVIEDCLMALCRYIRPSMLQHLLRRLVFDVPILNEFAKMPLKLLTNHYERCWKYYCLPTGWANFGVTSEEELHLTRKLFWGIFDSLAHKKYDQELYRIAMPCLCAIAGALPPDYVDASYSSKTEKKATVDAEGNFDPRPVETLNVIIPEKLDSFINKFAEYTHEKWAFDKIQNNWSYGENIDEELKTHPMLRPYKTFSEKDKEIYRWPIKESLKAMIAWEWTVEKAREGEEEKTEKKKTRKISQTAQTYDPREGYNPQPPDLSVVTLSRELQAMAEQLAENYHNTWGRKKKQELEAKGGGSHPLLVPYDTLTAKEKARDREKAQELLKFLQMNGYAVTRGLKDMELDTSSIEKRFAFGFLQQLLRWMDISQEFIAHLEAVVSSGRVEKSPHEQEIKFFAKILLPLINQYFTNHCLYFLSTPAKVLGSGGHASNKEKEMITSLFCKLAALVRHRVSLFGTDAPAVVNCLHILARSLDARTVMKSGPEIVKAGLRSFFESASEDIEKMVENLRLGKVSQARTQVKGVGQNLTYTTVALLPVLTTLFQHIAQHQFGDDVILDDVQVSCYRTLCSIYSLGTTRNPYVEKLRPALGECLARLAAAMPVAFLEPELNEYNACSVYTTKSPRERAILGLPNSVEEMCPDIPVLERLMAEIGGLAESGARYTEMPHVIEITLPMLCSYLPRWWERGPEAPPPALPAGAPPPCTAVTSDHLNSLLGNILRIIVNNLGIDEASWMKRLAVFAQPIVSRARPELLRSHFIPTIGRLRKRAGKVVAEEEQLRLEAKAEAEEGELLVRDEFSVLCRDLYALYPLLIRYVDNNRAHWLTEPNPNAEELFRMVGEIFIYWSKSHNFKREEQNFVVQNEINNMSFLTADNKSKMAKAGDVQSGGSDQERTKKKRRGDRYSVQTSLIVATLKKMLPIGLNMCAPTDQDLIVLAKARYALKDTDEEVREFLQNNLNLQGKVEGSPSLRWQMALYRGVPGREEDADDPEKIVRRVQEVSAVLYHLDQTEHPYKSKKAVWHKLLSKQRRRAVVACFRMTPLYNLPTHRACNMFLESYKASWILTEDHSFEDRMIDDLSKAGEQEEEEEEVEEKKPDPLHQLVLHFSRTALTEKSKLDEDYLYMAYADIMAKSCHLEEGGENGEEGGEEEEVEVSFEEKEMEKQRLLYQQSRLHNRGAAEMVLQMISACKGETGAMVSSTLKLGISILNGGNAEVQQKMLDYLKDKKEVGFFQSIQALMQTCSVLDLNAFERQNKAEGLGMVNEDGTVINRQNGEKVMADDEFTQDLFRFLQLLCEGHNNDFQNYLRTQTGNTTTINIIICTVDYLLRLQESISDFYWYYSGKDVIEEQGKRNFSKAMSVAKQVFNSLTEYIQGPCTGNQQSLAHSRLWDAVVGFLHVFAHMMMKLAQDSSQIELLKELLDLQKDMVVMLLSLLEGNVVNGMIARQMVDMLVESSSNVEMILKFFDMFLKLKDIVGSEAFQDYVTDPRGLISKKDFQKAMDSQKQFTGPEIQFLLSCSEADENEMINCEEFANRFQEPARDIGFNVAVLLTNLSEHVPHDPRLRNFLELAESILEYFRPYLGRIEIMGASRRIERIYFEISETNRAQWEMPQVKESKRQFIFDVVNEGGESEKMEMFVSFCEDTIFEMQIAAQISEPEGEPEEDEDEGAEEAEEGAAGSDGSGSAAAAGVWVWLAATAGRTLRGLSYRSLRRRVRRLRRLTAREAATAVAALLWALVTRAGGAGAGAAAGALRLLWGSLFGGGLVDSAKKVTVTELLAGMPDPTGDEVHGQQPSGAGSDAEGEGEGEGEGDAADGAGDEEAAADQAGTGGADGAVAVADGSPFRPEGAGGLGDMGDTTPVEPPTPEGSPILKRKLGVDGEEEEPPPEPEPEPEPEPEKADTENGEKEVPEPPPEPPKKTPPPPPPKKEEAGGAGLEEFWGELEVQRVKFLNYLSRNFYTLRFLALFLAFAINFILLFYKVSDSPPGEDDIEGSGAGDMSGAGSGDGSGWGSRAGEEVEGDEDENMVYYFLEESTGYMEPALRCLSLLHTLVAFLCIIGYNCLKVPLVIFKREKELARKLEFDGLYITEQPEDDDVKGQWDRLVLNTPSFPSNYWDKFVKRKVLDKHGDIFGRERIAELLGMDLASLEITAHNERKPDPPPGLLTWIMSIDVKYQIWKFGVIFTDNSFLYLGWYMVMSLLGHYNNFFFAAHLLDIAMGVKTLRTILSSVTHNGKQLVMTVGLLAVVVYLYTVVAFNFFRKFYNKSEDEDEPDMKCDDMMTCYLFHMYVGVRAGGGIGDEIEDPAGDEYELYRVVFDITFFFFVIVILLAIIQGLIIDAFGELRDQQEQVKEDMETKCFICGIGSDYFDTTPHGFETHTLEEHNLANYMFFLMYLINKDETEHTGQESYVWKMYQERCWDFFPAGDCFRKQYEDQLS

For the compound `CCCCCC1OC(=O)C(C)N(C)C(=O)C(CCCCC)OC(=O)C(C)N(C)C(=O)C(CCCCC)OC(=O)C(C)N(C)C(=O)C(CCCCC)OC(=O)C(C)N(C)C1=O` (stereo not shown) [FKI-1033 substance], the Solubility in solvent entry was “Soluble” in data set [1] (methanol, ethanol, ethyl acetate and chloroform); “Hardly soluble” in data set [1] (water and n-hexane). Moreover, the “growth inhibition of the nematodes (Caenorhabditis elegans)” value in data set [2] is reported as “inhibited growth”. Also, the half-maximal inhibitory concentration (IC50) in data set [3] came to 53.9 µM; in data set [4] (read-out: ryanodine binding inhibition activity, IC50, crude ryanodine receptor fraction of Periplaneta americana, [9,21-3H](N) ryanodine, room temperature 90 min), 4.2 µM. In addition, the “potency of ryanodine binding inhibition against the insect ryanodine receptor versus the mammalian ryanodine receptor” value in data set [4] (insect (Periplaneta americana) vs mammalian (mouse) receptor) is listed as “more than ten times potent”. Further, in data set [5], the “growth inhibition of the arthropods (Artemia salina)” value is given as “inhibited growth”.

One may read the IC50 as the concentration that inhibits the measured activity by half.
